In article PMC8976278, “Hesperidin identified from Citrus extracts potently inhibits HCV genotype 3a NS3 protease” (BMC Complementary Medicine and Therapies, 2022):
Values after ≈ are worked out from the molar mass of the structure shown. Read-outs that look alike come from different tables or passages of the source.

Columns and labels:
[1] = molecular target: NS3 protease domain of HCV genotype 3a fused to the cognate NS4A cofactor (NS3-NS4A) (hepatitis C virus genotype 3a)
[2] = molecular target: NS3-NS4A protease of HCV genotype-3a (Hepatitis C virus genotype 3a, UniProt Q81258); assay: FRET assay of NS3-NS4A protease activity with depsipeptide substrate; assay type: biochemical; set-up: Activity, Slope trial 1st / Activity, Slope trial 2nd / Activity, Slope trial 3rd: unit not given here
NS3-NS4A protease of HCV genotype-3a, sequence (Q81258 1033-1213, other chains not shown): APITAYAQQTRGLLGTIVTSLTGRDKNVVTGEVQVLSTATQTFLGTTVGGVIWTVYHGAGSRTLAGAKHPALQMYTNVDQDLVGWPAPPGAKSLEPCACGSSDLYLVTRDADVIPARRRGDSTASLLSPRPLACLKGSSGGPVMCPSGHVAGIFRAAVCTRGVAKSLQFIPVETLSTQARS
Method: For measuring the protease activity, a FRET assay was performed using a depsipeptide substrate, Ac-Asp-Glu-Asp-(EDANS)-Glu-Glu-Abu-ψ-[COO]-Ala-Ser-Lys(DABCYL)-NH2 (AnaSpec,US). The fluorescence signal generated upon cleavage of the depsipeptide substrate by the NS3 protease domain was continuously recorded using excitation and emission wavelengths of 355 nm and 510 nm, respectively, and a fluorescence microplate reader (TECAN, US). In the case of the full-length NS3 protease, the reaction buffer (50 mM HEPES, pH 7.5, 0.4% Triton X-100, 10 mM DTT (Thermo Fisher Scientific), 3% DMSO (Thermo Fisher Scientific), and 40% glycerol) was pre-incubated (at 30 °C for 10 min) with 25 µM of a synthetic peptide, […] (purchased from LifeTein LLC, US), representing the core of the NS4A cofactor required for the catalytic activity. For the FRET assay, 1 nM of the full-length NS3 protease was used. In the case of NS3-NS4A, the protein (0.5 nM) was incubated in the reaction buffer at 30 °C for 10 min (without the synthetic peptide). The reaction was initiated by the addition of the substrate (10 µL) in a two-fold serial dilution up to a concentration of 2 µM. Reaction wells without the substrate were used as negative controls. For correction of the inner filter effect, a previously described procedure was followed. Kinetic parameters (such as kcat, Km, and kcat/Km) were calculated using the Michaelis–Menten equation. Data were fitted to the equation by non-linear regression using the GraphPad Prism® software (version 7.04, GraphPad Prism®, Inc., USA).
For validation of the FRET assay, commercially available inhibitors (asuanaprevir, ciluprevir, danoprevir, and telaprevir (purchased from AdooQ® Bioscience, US) were used to inhibit the activity of the target enzyme (NS3-NS4A protease of HCV genotype-3a), as described previously. Briefly, 1 µM of the depsipeptide substrate was added to the protein, pre-incubated with a given inhibitor, and fluorescence measurements were recorded for 20, 30, or 60 min using 355 nm and 510 nm as excitation and emission wavelengths, respectively. The IC50 value, representing the half-maximal inhibitory concentration, of each commercial inhibitor was calculated using the GraphPad Prism® software (version 7.04, GraphPad Prism®, Inc., USA). The experiment was performed in triplicates, and the average value obtained was considered as the IC50 value.
Reaction mixtures (300 µL) were prepared in the assay buffer (50 mM HEPES, pH 7.5, 0.4% Triton X-100, 10 mM DTT, and 40% glycerol). For initial screening, 3.33 mg of the plant extract was dissolved in 1 mL DMSO, and was transferred to the reaction buffer such that the final concentration of DMSO was 3%. The reaction was initiated by adding 0.5 nM NS3-NS4A protease, and the released RET S1 FRET substrate was monitored using a fluorescence microplate reader (TECAN). Reaction mixtures (also containing 3% DMSO) without any plant extract were used for recording blank measurements. The background fluorescence contributed by the plant extract was also recorded. For calculation of the calibration curve, spiking with known amounts (0.25 µM, 0.5 µM, 1 µM, and 2 µM) of the free FRET substrate (RET S1) was made while keeping the reaction mixture at the same volume, containing all the constituents (the plant extract, the assay buffer as well as the enzyme). Slope of the curve was correlated with that obtained from free FRET substrate concentrations without any plant extract as well as the substrate. Initial reaction rates were calculated, and the percentage (%) enzyme inhibition was calculated using the equation: 100 x [a-b/a] where “a” refers to the fluorescence value generated by the reaction mixture only (without the plant extract) and “b” is the solution fluorescence in the presence of the plant extract. […]

HCV NS3 protease = system: HCV NS3 protease; set-up: method as in earlier work; details: ref [49], [50]; Table S3 ref [1], [2]; cited from earlier work
[3] = FRET assay validation, 1 µM depsipeptide substrate, triplicates, read-out: IC50 value (commercial inhibitors) (converted)

In the case of “depsipeptide substrate Ac-Asp-Glu-Asp-(EDANS)-Glu-Glu-Abu-ψ-[COO]-Ala-Ser-Lys(DABCYL)-NH2”, the Km of cleavage of the depsipeptide substrate by NS3-NS4A (0.5 nM) in the FRET protease assay, Michaelis-Menten fit [1] is reported as 8.79 µM.
`COc1ccc2c(O[C@@H]3C[C@H]4C(=O)N[C@]5(C(=O)O)C[C@H]5/C=C\CCCCC[C@H](NC(=O)OC5CCCC5)C(=O)N4C3)cc(-c3csc(NC(C)C)n3)nc2c1` [Ciluprevir] showed an IC50 [2, 3] of 53.2 nM.
In the case of `CC(C)(C)OC(=O)N[C@H]1CCCCC/C=C\[C@@H]2C[C@@]2(C(=O)NS(=O)(=O)C2CC2)NC(=O)[C@@H]2C[C@@H](OC(=O)N3Cc4cccc(F)c4C3)CN2C1=O` [Danoprevir], the “IC50 value [reported in the literature]” value (HCV NS3 protease) is given as 0.0146 µg/mL (≈ 0.0199 µM), the IC50 [2, 3] is given as 25.1 nM and the “Activity, Slope trial 1st” value ([2]; inhibitor conc. 1.3717 nM) is given as 1.677. For the same compound, the “Activity, Slope trial 2nd” value ([2]; inhibitor conc. 1.3717 nM) was 2.153, the “Activity, Slope trial 3rd” value ([2]; inhibitor conc. 1.3717 nM) was 9.123 and the “Average Slope” value ([2]; inhibitor conc. 1.3717 nM) was 4.31. The “Activity, Slope trial 1st” value ([2]; inhibitor conc. 4.1152 nM) was 1.449, the “Activity, Slope trial 2nd” value ([2]; inhibitor conc. 4.1152 nM) was 1.834 and the “Activity, Slope trial 3rd” value ([2]; inhibitor conc. 4.1152 nM) was 9.072. The “Average Slope” value ([2]; inhibitor conc. 4.1152 nM) was 4.11, the “Activity, Slope trial 1st” value ([2]; inhibitor conc. 12.3456 nM) was 0.991 and the “Activity, Slope trial 2nd” value ([2]; inhibitor conc. 12.3456 nM) was 0.979. For the same compound, the “Activity, Slope trial 3rd” value ([2]; inhibitor conc. 12.3456 nM) was 5.934, the “Average Slope” value ([2]; inhibitor conc. 12.3456 nM) was 2.63 and the “Activity, Slope trial 1st” value ([2]; inhibitor conc. 37.037 nM) was 0.450. The “Activity, Slope trial 2nd” value ([2]; inhibitor conc. 37.037 nM) was 0.460, the “Activity, Slope trial 3rd” value ([2]; inhibitor conc. 37.037 nM) was 2.283 and the “Average Slope” value ([2]; inhibitor conc. 37.037 nM) was 1.06. The “Activity, Slope trial 1st” value ([2]; inhibitor conc. 111.1111 nM) was 0.196, the “Activity, Slope trial 2nd” value ([2]; inhibitor conc. 111.1111 nM) was 0.174 and the “Activity, Slope trial 3rd” value ([2]; inhibitor conc. 111.1111 nM) was 0.757. The “Average Slope” value ([2]; inhibitor conc. 111.1111 nM) was 0.37, the “Activity, Slope trial 1st” value ([2]; inhibitor conc. 333.3333 nM) was 0 and the “Activity, Slope trial 2nd” value ([2]; inhibitor conc. 333.3333 nM) was 0.039. The “Activity, Slope trial 3rd” value ([2]; inhibitor conc. 333.3333 nM) was 0.003151, the “Average Slope” value ([2]; inhibitor conc. 333.3333 nM) was 0.01 and the “Activity, Slope trial 1st” value ([2]; inhibitor conc. 1000 nM) was 0. For the same compound, the “Activity, Slope trial 2nd” value ([2]; inhibitor conc. 1000 nM) was 0, the “Activity, Slope trial 3rd” value ([2]; inhibitor conc. 1000 nM) was 0 and the “Average Slope” value ([2]; inhibitor conc. 1000 nM) was 0.
With `C=C[C@@H]1C[C@]1(NC(=O)[C@@H]1C[C@@H](Oc2ncc(OC)c3ccc(Cl)cc23)CN1C(=O)[C@@H](NC(=O)OC(C)(C)C)C(C)(C)C)C(=O)NS(=O)(=O)C1CC1` [Asunaprevir] the IC50 [2, 3] was 68.3 nM.
For `O=c1oc2c(O)c(O)cc3c(=O)oc4c(O)c(O)cc1c4c23` [Ellagic acid], the IC50 ([2]; commercially obtained pure compound, hesperidin 1230 to 1.67 µg/mL, read-out: IC50 value (pure natural compound) (converted)) was 98000 nM.
For `CCC[C@H](NC(=O)[C@@H]1[C@H]2CCC[C@H]2CN1C(=O)[C@@H](NC(=O)[C@@H](NC(=O)c1cnccn1)C1CCCCC1)C(C)(C)C)C(=O)C(=O)NC1CC1` [Telaprevir], the “IC50 value [reported in the literature]” value (HCV NS3 protease) is listed as 0.0387 µg/mL (≈ 0.0569 µM), the IC50 [2, 3] is listed as 69.9 nM and the “Activity, Slope trial 1st” value ([2]; inhibitor conc. 1.3717 nM) is listed as 4.176. The “Activity, Slope trial 2nd” value ([2]; inhibitor conc. 1.3717 nM) was 2.087, the “Activity, Slope trial 3rd” value ([2]; inhibitor conc. 1.3717 nM) was 2.395 and the “Average Slope” value ([2]; inhibitor conc. 1.3717 nM) was 2.88. For the same compound, the “Activity, Slope trial 1st” value ([2]; inhibitor conc. 4.1152 nM) was 4.77, the “Activity, Slope trial 2nd” value ([2]; inhibitor conc. 4.1152 nM) was 3.604 and the “Activity, Slope trial 3rd” value ([2]; inhibitor conc. 4.1152 nM) was 1.309. The “Average Slope” value ([2]; inhibitor conc. 4.1152 nM) was 3.22, the “Activity, Slope trial 1st” value ([2]; inhibitor conc. 12.3456 nM) was 3.041 and the “Activity, Slope trial 2nd” value ([2]; inhibitor conc. 12.3456 nM) was 1.613. The “Activity, Slope trial 3rd” value ([2]; inhibitor conc. 12.3456 nM) was 2.131, the “Average Slope” value ([2]; inhibitor conc. 12.3456 nM) was 2.26 and the “Activity, Slope trial 1st” value ([2]; inhibitor conc. 37.037 nM) was 3.796. For the same compound, the “Activity, Slope trial 2nd” value ([2]; inhibitor conc. 37.037 nM) was 1.828, the “Activity, Slope trial 3rd” value ([2]; inhibitor conc. 37.037 nM) was 1.004 and the “Average Slope” value ([2]; inhibitor conc. 37.037 nM) was 2.20. For the same compound, the “Activity, Slope trial 1st” value ([2]; inhibitor conc. 111.1111 nM) was 1.774, the “Activity, Slope trial 2nd” value ([2]; inhibitor conc. 111.1111 nM) was 1.116 and the “Activity, Slope trial 3rd” value ([2]; inhibitor conc. 111.1111 nM) was 0.627. For the same compound, the “Average Slope” value ([2]; inhibitor conc. 111.1111 nM) was 1.17, the “Activity, Slope trial 1st” value ([2]; inhibitor conc. 333.3333 nM) was 0.5776 and the “Activity, Slope trial 2nd” value ([2]; inhibitor conc. 333.3333 nM) was 0.3406. The “Activity, Slope trial 3rd” value ([2]; inhibitor conc. 333.3333 nM) was 0.163, the “Average Slope” value ([2]; inhibitor conc. 333.3333 nM) was 0.36 and the “Activity, Slope trial 1st” value ([2]; inhibitor conc. 1000 nM) was 1.246. For the same compound, the “Activity, Slope trial 2nd” value ([2]; inhibitor conc. 1000 nM) was 0.081, the “Activity, Slope trial 3rd” value ([2]; inhibitor conc. 1000 nM) was 0 and the “Average Slope” value ([2]; inhibitor conc. 1000 nM) was 0.44.
